# Assay results taken from US7973061B2, “Anaplastic lymphoma kinase modulators and methods of use” (Exelixis, Inc., priority 2004, dated 2011).
# Target: T1, ALK (baculovirus expressed human ALK kinase domain F1098-K1410) (Homo sapiens, UniProt Q9UM73)
# T1 construct: human ALK kinase domain F1098-K1410; made in house
# Assay: biochemical
# Details: 1 μM ATP, 4 μM poly-AEKY, 12 nM ALK, 2 hours at ambient temperature; read-out: ALK IC50
# Method in brief: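 Baculovirus-expressed human ALK kinase domain (F1098-K1410) was run in a luciferase-coupled chemiluminescent format, with ATP near its KM. After 2 h at ambient temperature, remaining ATP was read by luciferase-luciferin luminescence. IC50 came from 10-point dose-response curves fitted to a four-parameter equation with Hill slope.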
# T1 sequence (Q9UM73 1098-1410): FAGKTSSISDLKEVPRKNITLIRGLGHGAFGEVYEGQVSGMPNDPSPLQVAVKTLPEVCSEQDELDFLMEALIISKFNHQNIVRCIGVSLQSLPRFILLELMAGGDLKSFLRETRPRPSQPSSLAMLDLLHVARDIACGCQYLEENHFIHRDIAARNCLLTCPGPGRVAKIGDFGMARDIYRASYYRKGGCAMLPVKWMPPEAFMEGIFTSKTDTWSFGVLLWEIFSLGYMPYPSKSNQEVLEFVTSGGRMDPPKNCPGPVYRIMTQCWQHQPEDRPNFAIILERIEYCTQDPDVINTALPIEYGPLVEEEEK
row,SMILES,IC50
1,"O=C(Cc1ccc2ccccc2c1)NCc1nc(C(=O)NCCc2ccccc2F)cs1 [Entry 169, N-[2-(2-fluorophenyl)ethyl]-2-{[(naphthalen-2-ylacetyl)amino]methyl}-1,3-thiazole-4-carboxamide]",50 to 500 nM
2,"CC(NC(=O)c1csc(CNC(=O)COc2ccc(OC(F)(F)F)cc2)n1)c1ccc(Br)cc1 (stereo not shown) [Entry 204, N-[1-(4-bromophenyl)ethyl]-2-({[({4-[(trifluoromethyl)oxy]phenyl}oxy)acetyl]amino}methyl)-1,3-thiazole-4-carboxamide]",50 to 500 nM
3,"Cc1cc(Cl)ccc1CNC(=O)c1csc(CNC(=O)COc2ccc(OC(F)(F)F)cc2)n1 [Entry 150, N-[(4-chloro-2-methylphenyl)methyl]-2-({[({4-[(trifluoromethyl)oxy]phenyl}oxy)acetyl]amino}methyl)-1,3-thiazole-4-carboxamide]",50 to 500 nM
4,"O=C(COc1ccc(OC(F)(F)F)cc1)NCc1nc(C(=O)NCc2ccc(F)cc2)cs1 [Entry 206, N-[(4-fluorophenyl)methyl]-2-({[({4-[(trifluoromethyl)oxy]phenyl}oxy)acetyl]amino}methyl)-1,3-thiazole-4-carboxamide]",50 to 500 nM
5,"O=C(COc1ccc(OC(F)(F)F)cc1)NCc1nc(C(=O)NCCc2ccccc2Cl)cs1 [Entry 104, N-[2-(2-chlorophenyl)ethyl]-2-({[({4-[(trifluoromethyl)oxy]phenyl}oxy)acetyl]amino}methyl)-1,3-thiazole-4-carboxamide]",50 to 500 nM
6,"CCCCC(CC)COCCCNC(=O)c1csc(CNC(=O)COc2ccc(OC(F)(F)F)cc2)n1 (stereo not shown) [Entry 100, N-{3-[(2-ethylhexyl)oxy]propyl}-2-({[({4-[(trifluoromethyl)oxy]phenyl}oxy)acetyl]amino}methyl)-1,3-thiazole-4-carboxamide]",50 to 500 nM
7,"CSCCCNC(=O)c1csc(CNC(=O)COc2ccc(OC(F)(F)F)cc2)n1 [Entry 149, N-[3-(methylthio)propyl]-2-({[({4-[(trifluoromethyl)oxy]phenyl}oxy)acetyl]amino}methyl)-1,3-thiazole-4-carboxamide]",50 to 500 nM
8,"CN(CCCNC(=O)c1csc(CNC(=O)COc2ccc(OC(F)(F)F)cc2)n1)c1ccccc1 [Entry 107, N-{3-[methyl(phenyl)amino]propyl}-2-({[({4-[(trifluoromethyl)oxy]phenyl}oxy)acetyl]amino}methyl)-1,3-thiazole-4-carboxamide]",50 to 500 nM

# Other lines, results leading:
row,IC50,SMILES
1,50 to 500 nM,"COc1cccc(CNC(=O)c2csc(CNC(=O)COc3ccc(OC(F)(F)F)cc3)n2)c1 [Entry 154, N-{[3-(methyloxy)phenyl]methyl}-2-({[({4-[(trifluoromethyl)oxy]phenyl}oxy)acetyl]amino}methyl)-1,3-thiazole-4-carboxamide]"
2,50 to 500 nM,"O=C(COc1ccc(OC(F)(F)F)cc1)NCc1nc(C(=O)NCCc2ccc(Cl)cc2Cl)cs1 [Entry 160, N-[2-(2,4-dichlorophenyl)ethyl]-2-({[({4-[(trifluoromethyl)oxy]phenyl}oxy)acetyl]amino}methyl)-1,3-thiazole-4-carboxamide]"
3,50 to 500 nM,"Cc1ccc(C)c(CCNC(=O)c2csc(CNC(=O)COc3ccc(OC(F)(F)F)cc3)n2)c1 [Entry 33, N-[2-(2,5-dimethylphenyl)ethyl]-2-({[({4-[(trifluoromethyl)oxy]phenyl}oxy)acetyl]amino}methyl)-1,3-thiazole-4-carboxamide]"
4,50 to 500 nM,"COc1cc(CCNC(=O)c2csc(CNC(=O)COc3ccc(OC(F)(F)F)cc3)n2)cc(OC)c1 [Entry 30, N-{2-[3,5-bis(methyloxy)phenyl]ethyl}-2-({[({4-[(trifluoromethyl)oxy]phenyl}oxy)acetyl]amino}methyl)-1,3-thiazole-4-carboxamide]"
5,50 to 500 nM,"CC(C)CCNC(=O)c1csc(CNC(=O)COc2ccc(OC(F)(F)F)cc2)n1 [Entry 138, N-(3-methylbutyl)-2-({[({4-[(trifluoromethyl)oxy]phenyl}oxy)acetyl]amino}methyl)-1,3-thiazole-4-carboxamide]"
